Data taken from paper PMC2848298 (Bioorganic & medicinal chemistry letters, 2010).
Like-named read-outs stand apart in the source and are kept apart here.

Key:
[1] = molecular target: T1, ABCG2 (Homo sapiens, UniProt Q9UNQ0)
T1 sequence (Q9UNQ0 1-655): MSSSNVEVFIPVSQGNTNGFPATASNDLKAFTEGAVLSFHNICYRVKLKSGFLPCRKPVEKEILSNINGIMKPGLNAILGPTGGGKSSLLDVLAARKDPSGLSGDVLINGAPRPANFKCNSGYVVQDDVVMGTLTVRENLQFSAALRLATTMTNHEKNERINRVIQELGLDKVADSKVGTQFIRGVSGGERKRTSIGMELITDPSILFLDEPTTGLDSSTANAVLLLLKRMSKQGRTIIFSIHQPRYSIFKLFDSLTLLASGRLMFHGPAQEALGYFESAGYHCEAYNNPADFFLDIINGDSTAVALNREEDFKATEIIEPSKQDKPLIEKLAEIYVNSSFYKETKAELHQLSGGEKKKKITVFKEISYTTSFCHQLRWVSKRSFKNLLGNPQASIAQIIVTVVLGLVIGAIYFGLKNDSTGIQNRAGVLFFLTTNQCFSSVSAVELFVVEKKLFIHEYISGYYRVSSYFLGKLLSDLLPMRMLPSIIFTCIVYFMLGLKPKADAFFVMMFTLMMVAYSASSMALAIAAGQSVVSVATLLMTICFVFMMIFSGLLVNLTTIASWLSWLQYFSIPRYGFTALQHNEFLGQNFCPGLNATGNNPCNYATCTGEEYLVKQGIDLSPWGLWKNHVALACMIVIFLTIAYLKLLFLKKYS

[2] = test system: P-glycoprotein (P-gp); settings: cited from earlier work
[3] = molecular target: T1, ABCG2; experiment: Cellular accumulation of the ABCG2 substrate pheophorbide-a; settings: PhA accumulation assay

Row | Compound | ABCG2 inhibitory activity (in words) [3] | further results
1 | 2-methoxy-p-coumaric acid [compound 8] | – | ABCG2 inhibitory activity (in words) [1]: inactive
2 | CO/C(=C\c1ccc(O)cc1)C(=O)N/C=C/c1cc(Br)c(OC)c(Br)c1 [botryllamide A, reference compound] | – | Inhibition of export of rhodamine by P-gp [2]: inhibited the export of rhodamine
3 | CO/C(=C\c1ccc(O)cc1)C(=O)N/C=C/c1cc(Br)c(O)c(Br)c1 [botryllamide G] | – | Inhibition of efflux of rhodamine out of P-gp-overexpressing cells ([2]; at 50 μM): not the efflux of rhodamine
4 | CO/C(=C\c1ccc(O)cc1)C(=O)NCC(O)c1ccc(O)cc1 (centres unmarked) [compound 9] | inactive | –
5 | O=C(/C=C/c1ccc(O)cc1)N/C=C/c1ccc(O)cc1 [compound 18] | – | ABCG2 inhibitory activity (in words) ([3]; at 100 μM): inactive
6 | CO/C(=C\c1ccc(O)c(O)c1)C(=O)N/C=C/c1ccc(O)cc1 [compound 21] | retained inhibitory activity | –
7 | CO/C(=C\c1cc(Br)c(O)c(Br)c1)C(=O)N/C=C/c1ccc(O)cc1 [compound 22] | observed inhibitory activity | –
8 | CO/C(=C\c1cc(Br)c(O)c(Br)c1)C(=O)N/C=C/c1ccc(OC(C)=O)cc1 [compound 23] | observed inhibitory activity | –
